Measurements from paper PMC10329973 (Clinical pharmacology in drug development, 2023).
Where two headings read alike, the source gives them in different places.

Experiments:
[1] = mouse, minimum effective dose 2 mg/kg IP; cited from earlier work
[2] = Multiple ascending dose study NP10679-102, plasma pharmacokinetics; type: in vivo; conditions: human, iv; for Cmax / Tmax: MAD; for half-life: T 1/2, MAD
[3] = 25 mg, 25 mg IV once daily, day 1
[4] = 25 mg, 25 mg IV once daily, day 2
[5] = 25 mg, 25 mg IV once daily, day 3
[6] = 25 mg, 25 mg IV once daily, day 4
[7] = 25 mg, 25 mg IV once daily, day 5
[8] = 50 mg, 50 mg IV once daily, day 1
[9] = 50 mg, 50 mg IV once daily, day 2
[10] = 50 mg, 50 mg IV once daily, day 3
[11] = 50 mg, 50 mg IV once daily, day 4
[12] = 50 mg, 50 mg IV once daily, day 5
[13] = 100 mg, 100 mg IV once daily, day 1
[14] = 100 mg, 100 mg IV once daily, day 2
[15] = 100 mg, 100 mg IV once daily, day 3
[16] = 100 mg, 100 mg IV once daily, day 4
[17] = 100 mg, 100 mg IV once daily, day 5

## O=C1CCc2cc(OC[C@H](O)CN3CCN(c4ccc(C(F)(F)F)cc4)CC3)ccc2N1 [NP10679, (R)-6-(2-Hydroxy-3-(4-(4-(trifluoromethyl)phenyl)piperazin-1-yl)propoxy)-3,4-dihydroquinolin-2(1H)-one]
[1]
  AUC(0-inf): 5690 ng·h/mL
  Cmax: 581 ng/mL
[2]; 25 mg, AUC 0–24, MAD, 25 mg IV once daily, day 1
  AUC(0-t): 1470 ± 186 ng·h/mL
[2]; 25 mg, AUC 0–24, MAD, 25 mg IV once daily, day 2
  AUC(0-t): 1920 ± 305 ng·h/mL
[2]; 25 mg, AUC 0–24, MAD, 25 mg IV once daily, day 3
  AUC(0-t): 2090 ± 303 ng·h/mL
[2]; 25 mg, AUC 0–24, MAD, 25 mg IV once daily, day 4
  AUC(0-t): 2170 ± 397 ng·h/mL
[2]; 25 mg, AUC 0–24, MAD, 25 mg IV once daily, day 5
  AUC(0-t): 2260 ± 478 ng·h/mL
[2]; 25 mg, AUC 0–96, MAD, 25 mg IV once daily, day 5
  AUC(0-t): 3880 ± 1140 ng·h/mL
[2]; [3]
  Cmax: 208 ± 72 ng/mL
  half-life: 15 ± 3 h
  Tmax: 0.5 h
[2]; [4]
  Cmax: 211 ± 57 ng/mL
  half-life: 17 ± 2 h
  Tmax: 0.9 ± 0.8 h
[2]; [5]
  Cmax: 207 ± 35 ng/mL
  half-life: 16 ± 3 h
  Tmax: 0.8 ± 0.4 h
[2]; [6]
  Cmax: 250 ± 34 ng/mL
  half-life: 19 ± 5 h
  Tmax: 0.5 h
[2]; [7]
  Cmax: 213 ± 26 ng/mL
  half-life: 36 ± 15 h
  Tmax: 0.5 h
[2]; 50 mg, AUC 0–24, MAD, 50 mg IV once daily, day 1
  AUC(0-t): 2650 ± 283 ng·h/mL
[2]; 50 mg, AUC 0–24, MAD, 50 mg IV once daily, day 2
  AUC(0-t): 3300 ± 479 ng·h/mL
[2]; 50 mg, AUC 0–24, MAD, 50 mg IV once daily, day 3
  AUC(0-t): 3890 ± 424 ng·h/mL
[2]; 50 mg, AUC 0–24, MAD, 50 mg IV once daily, day 4
  AUC(0-t): 4110 ± 485 ng·h/mL
[2]; 50 mg, AUC 0–24, MAD, 50 mg IV once daily, day 5
  AUC(0-t): 4290 ± 500 ng·h/mL
[2]; 50 mg, AUC 0–96, MAD, 50 mg IV once daily, day 5
  AUC(0-t): 6960 ± 1170 ng·h/mL
[2]; [8]
  Cmax: 376 ± 99 ng/mL
  half-life: 18 ± 4 h
  Tmax: 0.8 ± 0.8 h
[2]; [9]
  Cmax: 276 ± 60 ng/mL
  half-life: 18 ± 3 h
  Tmax: 1 ± 0.4 h
[2]; [10]
  Cmax: 335 ± 73 ng/mL
  half-life: 26 ± 16 h
  Tmax: 0.8 ± 0.5 h
[2]; [11]
  Cmax: 389 ± 116 ng/mL
  half-life: 16 ± 1 h
  Tmax: 0.8 ± 0.5 h
[2]; [12]
  Cmax: 394 ± 72 ng/mL
  half-life: 21 ± 3 h
  Tmax: 0.7 ± 0.4 h
[2]; 100 mg, AUC 0–24, MAD, 100 mg IV once daily, day 1
  AUC(0-t): 5630 ± 625 ng·h/mL
[2]; 100 mg, AUC 0–24, MAD, 100 mg IV once daily, day 2
  AUC(0-t): 7320 ± 279 ng·h/mL
[2]; 100 mg, AUC 0–24, MAD, 100 mg IV once daily, day 3
  AUC(0-t): 8710 ± 458 ng·h/mL
[2]; 100 mg, AUC 0–24, MAD, 100 mg IV once daily, day 4
  AUC(0-t): 9510 ± 1200 ng·h/mL
[2]; 100 mg, AUC 0–24, MAD, 100 mg IV once daily, day 5
  AUC(0-t): 8980 ± 376 ng·h/mL
[2]; 100 mg, AUC 0–96, MAD, 100 mg IV once daily, day 5
  AUC(0-t): 13900 ± 962 ng·h/mL
[2]; [13]
  Cmax: 1240 ± 1150 ng/mL
  half-life: 22 ± 5 h
  Tmax: 0.5 h
[2]; [14]
  Cmax: 570 ± 29 ng/mL
  half-life: 22 ± 5 h
  Tmax: 0.8 ± 0.3 h
[2]; [15]
  Cmax: 812 ± 190 ng/mL
  half-life: 22 ± 5 h
  Tmax: 0.5 h
[2]; [16]
  Cmax: 873 ± 236 ng/mL
  half-life: 34 ± 28 h
  Tmax: 0.6 ± 0.3 h
[2]; [17]
  Cmax: 1080 ± 295 ng/mL
  half-life: 13 ± 5 h
  Tmax: 0.5 h
